Experimental data reported in PubChem BioAssay AID504363 (Southern Research Specialized Biocontainment Screening …, 2011).
The source made the active and inactive calls.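 Rule for the calls: active = compound cutting virus infection of reporter cells by half or more at some tested dose; inactive = the rest.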

Tested on: MAGI-CCR5 HeLa cells, HIV-1 IIIB, beta-gal luminescence, 48 h
Experiment: X4 HIV-1 replication inhibitors in MAGI cells, dose response, MAGI-CCR5 cells, beta-gal luminescence, 2% serum (AID 504363)

Compound | IC50
CS(=O)(=O)C1=NSC2=NC(=O)/C(=C\c3cccn3-c3ccc(F)cc3)C(=N)N21 | 34.9 µM
CS(=O)(=O)C1=NSC2=NC(=O)/C(=C\c3cccn3-c3cc(Cl)cc(Cl)c3)C(=N)N21 | 34.3 µM
CCOc1ccc(-n2cccc2/C=C2/C(=N)N3C(=NC2=O)SN=C3S(C)(=O)=O)cc1 | 34.4 µM
COc1cccc(-n2cccc2/C=C2/C(=N)N3C(=NC2=O)SN=C3S(C)(=O)=O)c1 | 31.4 µM
O=C(O)c1ccc(C[n+]2c(-c3ccc([N+](=O)[O-])cc3)csc2Nc2ccccc2)cc1 | 31.7 µM
CCc1ccc(-n2cccc2/C=C2/C(=N)N3C(=NC2=O)SN=C3S(C)(=O)=O)cc1 | 31.9 µM
Cc1ccc(-n2cccc2/C=C2/C(=N)N3C(=NC2=O)SN=C3S(C)(=O)=O)cc1 | 34.3 µM
CC1=C(C(=O)OC(C)C)C(c2ccc(Cl)cc2)n2c(s/c(=C\c3ccc(OCC(=O)O)cc3)c2=O)=N1 (stereo not drawn) | > 100 µM (inactive)
CS(=O)(=O)C1=NSC2=NC(=O)/C(=C\c3cccn3-c3cccc(Cl)c3)C(=N)N21 | 35.7 µM
Cc1ccc(-n2cccc2/C=C2/C(=N)N3C(=NC2=O)SN=C3S(C)(=O)=O)cc1C | 35.2 µM
CS(=O)(=O)C1=NSC2=NC(=O)/C(=C\c3cccn3-c3ccc(Cl)c(Cl)c3)C(=N)N21 | 33.7 µM
O=C(O)c1ccc(C[n+]2c(-c3ccccc3)csc2Nc2ccccc2)cc1 | 53.9 µM
COc1cccc(C2C(C(=O)Nc3ccccc3)=C(C)N=c3sc(=Cc4ccc(OCC(=O)O)cc4)c(=O)n32)c1 (stereo not drawn) | 39.7 µM
CS(=O)(=O)C1=NSC2=NC(=O)/C(=C\c3cccn3-c3cccc(C(F)(F)F)c3)C(=N)N21 | 34.1 µM
CCOC(=O)C1=C(C)N=c2sc(=Cc3ccc(OCC(=O)O)cc3)c(=O)n2C1c1ccccc1OC (stereo not drawn) | 34.5 µM
Nc1sc2ccccc2[n+]1Cc1ccc(C(=O)O)cc1 | > 100 µM (inactive)
CCOC(=O)C1=C(C)N=c2sc(=Cc3ccc(OCC(=O)O)cc3)c(=O)n2C1c1ccc(OC)cc1OC (stereo not drawn) | 33.7 µM
CS(=O)(=O)C1=NSC2=NC(=O)/C(=C\c3cccn3-c3ccc(Cl)cc3)C(=N)N21 | 36.2 µM
CS(=O)(=O)C1=NSC2=NC(=O)/C(=C\c3cccn3-c3ccc(Br)cc3)C(=N)N21 | 34.3 µM
CS(=O)(=O)C1=NSC2=NC(=O)/C(=C\c3cccn3-c3cccc(F)c3)C(=N)N21 | 36.9 µM
CCOC(=O)C1=C(C)N=c2sc(=Cc3ccc(OCC(=O)O)cc3)c(=O)n2C1c1ccccc1 (stereo not drawn) | 34.4 µM
COc1ccc(-n2cccc2/C=C2/C(=N)N3C(=NC2=O)SN=C3S(C)(=O)=O)cc1Cl | 36.8 µM
O=C(O)CCC(C(=O)O)N1C(=O)/C(=C\c2ccco2)SC1=S (stereo not drawn) | > 100 µM (inactive)
O=C(O)CCCN1C(=O)/C(=C\c2ccc(-c3ccc(Br)cc3)o2)SC1=S | 37.9 µM
CCOC(=O)C1=C(C)N=c2sc(=Cc3ccc(OCC(=O)O)cc3)c(=O)n2C1c1cc(OC)c(OC)c(OC)c1 (stereo not drawn) | 91.7 µM

Now from value to compound:

IC50 | Compound
2.63 µM | Cc1c2c(=O)n(-c3nc4ccccc4s3)nc-2cc(O)n1Cc1ccc(F)cc1
20.5 µM | COc1ccc(CCn2c(O)cc3nn(-c4nc5ccccc5s4)c(=O)c-3c2C)cc1
24.4 µM | CCOC(=O)C1=C(C)N=c2s/c(=C\c3ccc(OCC(=O)O)cc3)c(=O)n2C1c1ccc(Cl)cc1 (stereo not drawn)
15.8 µM | O=C(O)c1ccc(C2Nc3ccc(S(=O)(=O)Nc4cc(Cl)ccc4Cl)cc3C3C=CCC32)cc1 (stereo not drawn)
30.4 µM | CCOC(=O)C1=C(C)N=c2s/c(=C\c3ccc(OCC(=O)O)cc3)c(=O)n2C1c1ccc(OC)c(OCC)c1 (stereo not drawn)
20.6 µM | O=C(O)CCCN1C(=O)/C(=C\c2ccc(-c3ccc(F)cc3)o2)SC1=S
3.25 µM | Cc1c2c(=O)n(-c3nc4ccccc4s3)nc-2cc(O)n1Cc1cccs1
3.7 µM | Cc1c2c(=O)n(-c3nc4ccccc4s3)nc-2cc(O)n1CCc1cccs1
29 µM | CCOC(=O)C1=C(C)N=c2sc(=Cc3ccc(OCC(=O)O)cc3)c(=O)n2C1c1ccc(F)cc1 (stereo not drawn)
2.59 µM | COc1ccccc1Cn1c(O)cc2nn(-c3nc4ccccc4s3)c(=O)c-2c1C
2.53 µM | Cc1c2c(=O)n(-c3nc4ccccc4s3)nc-2cc(O)n1CCC(C)C
1.08 µM | Cc1c2c(=O)n(-c3nc4ccccc4s3)nc-2cc(O)n1C1CC1
26 µM | COc1ccc(-c2ccc(/C=C3\SC(=S)N(CCCC(=O)O)C3=O)o2)cc1
15.2 µM | O=C(O)CCCN1C(=O)/C(=C\c2ccc(-c3ccc(Cl)cc3)o2)SC1=S
19.9 µM | O=C(O)CCCN1C(=O)/C(=C/c2ccc(-c3ccc(Cl)c(Cl)c3)o2)SC1=S
4.44 µM | Cc1c2c(=O)n(-c3nc4ccccc4s3)nc-2cc(O)n1Cc1ccncc1
3.09 µM | COc1ccc(Cn2c(O)cc3nn(-c4nc5ccccc5s4)c(=O)c-3c2C)cc1
24.8 µM | O=C(O)CCCN1C(=O)/C(=C/c2cc3ccccc3o2)SC1=S
4.66 µM | Cc1c2c(=O)n(-c3nc4ccccc4s3)nc-2cc(O)n1CCc1ccc(O)cc1
4.17 µM | Cc1c2c(=O)n(-c3nc4ccccc4s3)nc-2cc(O)n1Cc1ccccc1Cl
20.6 µM | Cc1ccc(-c2ccc(/C=C3\SC(=S)N(CCCC(=O)O)C3=O)o2)cc1
2.81 µM | Cc1c2c(=O)n(-c3nc4ccccc4s3)nc-2cc(O)n1Cc1cccnc1
10.6 µM | CCOC(=O)C1=C(c2ccccc2)N=c2s/c(=C\c3ccc(OCC(=O)O)cc3)c(=O)n2C1c1cccc(OC)c1 (stereo not drawn)
23.4 µM | O=C(O)CCCN1C(=O)/C(=C/c2ccc(-c3cccc(C(F)(F)F)c3)o2)SC1=S
11 µM | O=C(O)c1ccc([C@@H]2Nc3ccc(S(=O)(=O)Nc4cccc5ccccc45)cc3[C@@H]3C=CC[C@@H]32)cc1
14.8 µM | CCc1ccc(-c2ccc(/C=C3\SC(=S)N(CCCC(=O)O)C3=O)o2)cc1
3.93 µM | COc1ccccc1NS(=O)(=O)c1ccc2c(c1)C1C=CCC1C(c1ccc(C(=O)O)cc1)N2 (stereo not drawn)
28.7 µM | O=C(O)CCCN1C(=O)/C(=C\c2ccc(-c3cccc(Cl)c3)o2)SC1=S
